Source: patent US10428104B2, “Substituted nucleoside derivatives useful as anticancer agents” (Pfizer Inc., priority 2015, dated 2019)

Target: PRMT5/MEP50 protein complex (Homo sapiens (Human), UniProt O14744)
Assay: PRMT5 biochemical assay (3H-SAM methylation of H4(1-21) peptide, filter plate scintillation counting)
Conditions: PRMT5 enzyme inhibition; 10 nM PRMT5/MEP50 complex, 200 nM H4(1-21) peptide, 1 uM SAM, 25 minute incubation at room temperature
Method: Following dilution, 1 ul was added to an empty 96-well microtiter plate. PRMT5/MEP50 protein complex was combined with H4(1-21) peptide ([…]) in PRMT5 assay buffer (50 mM Tris pH 8.5, 50 mM NaCl, 5 mM MgCl2, 1 mM EDTA, 1 mM TCEP) and 44 ul was added to the microtiter plate containing compound. S-Adenosyl-L-methionine (SAM) was prepared by combining ^3H labelled SAM with unlabelled SAM in PRMT5 assay buffer such that the final SAM concentration was 10 uM and the specific activity was 0.2 uCi/ul. The reaction was initiated by adding 5 ul of SAM stock to the microtiter plate. The final reaction conditions were 10 nM PRMT5/MEP50 complex, 200 nM peptide and 1 uM SAM. Following a 25 minute incubation at room temperature, the reaction was stopped with the addition of 100 uL of 20% TCA. The 3H-peptide product was captured using a 96-well filter plate (MSIPN4B, Millipore) and washed 5 times with PBS buffer. Scintillation fluid (100 ul) was added to the dried filter plate and counted in a liquid scintillation counter. IC50 values were determined by fitting the data to the standard 4-parameter dose response equation using Pfizer proprietary software.
In the final construct PRMT5 ORF was under control of polyhedrin promoter (polH) while MEP50 ORF was under control of p10 promoter.
Viruses were generated using standard Bac-to-Bac viral generation protocols (Life Technologies) and amplified to high-titer passage two (P2) stocks. Protein over expression was conducted in exponentially growing Sf21 cells infected at 2×106 with P2 viral stock at MOI=1 of PRMT5-Mep50 dual construct virus and Mep50 construct virus at 1:1 ratio. The co-expression protocol was used to supplement additional Mep50 for FlagPRMT5-Mep50 heterodimer formation. Cells were harvested at 72 h post infection by centrifugation and frozen pellet was stored at −80° C.
FlagPRMT5-Mep50 complex was purified from cell lysate using Flag affinity chromatography. Cell were lyzed in 50 mM Tris 7.5, 200 mM NaCl, 10% glycerol, 0.25 mM TCEP supplemented with EDTA-free protease inhibitor cocktail (Roche). 1.5 ml of lysis buffer was added per 1 g of frozen pellet. The clarified lysate was obtained by centrifugation of cell lysate at 10,000 g for 1 h at 4 C. 5 ml of Anti-FLAG M2 Agarose (Sigma) […] was added to the clarified lysate to isolate FlagPRMT5-Mep50. Following batch binding for 3 h at 4 C, Flag resin bound to FlagPRMT5-Mep50 washed with 20 column volumes (CV) of 50 mM Tris 7.5, 200 mM NaCl, 10% glycerol, 0.25 mM TCEP followed by elution of FlagPRMT5-Mep50 complex using 3 CV of 50 mM Tris 7.5, 200 mM NaCl, 10% glycerol, 0.25 mM TCEP supplemented with 200 ug/ml of FLAG Peptide ([…]). […] Peak fractions containing FlagPRMT5-Mep50 complex were concentrated to 1.6 mg/ml, flash frozen in small aliquots using liquid nitrogen and stored at −80° C.

PRMT5/MEP50 protein complex, sequence (O14744 other isoform, or with tags, fused parts or gaps): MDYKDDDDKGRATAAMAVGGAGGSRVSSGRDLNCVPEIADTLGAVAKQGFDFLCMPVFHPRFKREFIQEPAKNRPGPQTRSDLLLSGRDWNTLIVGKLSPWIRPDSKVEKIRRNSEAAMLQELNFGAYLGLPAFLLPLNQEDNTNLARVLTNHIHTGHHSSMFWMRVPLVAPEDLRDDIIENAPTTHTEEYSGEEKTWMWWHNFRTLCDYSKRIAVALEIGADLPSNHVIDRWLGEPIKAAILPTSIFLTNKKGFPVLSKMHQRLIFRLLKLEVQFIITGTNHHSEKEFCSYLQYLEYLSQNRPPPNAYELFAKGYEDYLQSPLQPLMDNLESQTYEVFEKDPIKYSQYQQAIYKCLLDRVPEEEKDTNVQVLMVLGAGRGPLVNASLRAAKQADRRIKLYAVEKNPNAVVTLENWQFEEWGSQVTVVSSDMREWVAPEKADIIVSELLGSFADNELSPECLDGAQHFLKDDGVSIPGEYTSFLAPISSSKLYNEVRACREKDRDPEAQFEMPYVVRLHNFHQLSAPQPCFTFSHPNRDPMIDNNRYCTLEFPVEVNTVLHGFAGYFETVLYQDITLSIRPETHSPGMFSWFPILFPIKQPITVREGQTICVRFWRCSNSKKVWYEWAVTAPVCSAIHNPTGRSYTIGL
PRMT5/MEP50 protein complex, sequence (Q9BQA1 whole entry partner): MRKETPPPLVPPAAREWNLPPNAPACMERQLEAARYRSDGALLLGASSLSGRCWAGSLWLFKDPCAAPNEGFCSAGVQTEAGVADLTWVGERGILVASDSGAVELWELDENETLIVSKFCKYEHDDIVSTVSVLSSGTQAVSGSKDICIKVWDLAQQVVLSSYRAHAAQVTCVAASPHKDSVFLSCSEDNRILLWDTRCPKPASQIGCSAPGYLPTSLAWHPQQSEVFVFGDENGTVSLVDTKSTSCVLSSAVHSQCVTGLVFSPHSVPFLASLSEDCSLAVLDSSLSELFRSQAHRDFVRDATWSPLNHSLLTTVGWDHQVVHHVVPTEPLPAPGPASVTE

Row | SMILES | IC50 [nM]
1 | Cc1ncnc2c1ccn2[C@@H]1O[C@@H]([C@@H](O)c2ccc(F)cc2)[C@@H](O)[C@H]1O [Example 75, (2S,3S,4R,5R)-2-((S)-(4-fluorophenyl)(hydroxy)methyl)-5-(4-methyl-7H-pyrrolo[2,3-d]pyrimidin-7-yl)tetrahydrofuran-3,4-diol] | 21700
2 | Cc1ncnc2c1ccn2[C@@H]1O[C@@H]([C@H](O)c2ccc(F)cc2)[C@@H](O)[C@H]1O [Example 76, (2S,3S,4R,5R)-2-((R)-(4-fluorophenyl)(hydroxy)methyl)-5-(4-methyl-7H-pyrrolo[2,3-d]pyrimidin-7-yl)tetrahydrofuran-3,4-diol] | 1810
3 | Cc1ncnc2c1ccn2[C@@H]1O[C@@H](c2ccn(C)n2)[C@@H](O)[C@H]1O [Example 77, (2S,3S,4R,5R)-2-(1-methyl-1H-pyrazol-3-yl)-5-(4-methyl-7H-pyrrolo[2,3-d]pyrimidin-7-yl)tetrahydrofuran-3,4-diol] | 24400
4 | CCOCc1cc([C@@H]2O[C@@H](n3ccc4c(C)ncnc43)[C@H](O)[C@@H]2O)[nH]n1 [Example 78, (2S,3S,4R,5R)-2-(3-(ethoxymethyl)-1H-pyrazol-5-yl)-5-(4-methyl-7H-pyrrolo[2,3-d]pyrimidin-7-yl)tetrahydrofuran-3,4-diol] | 51100
5 | Cc1ncnc2c1ccn2[C@@H]1O[C@@H](C(O)CO)[C@@H](O)[C@H]1O (stereo partly drawn) [Example 79, (2S,3S,4R,5R)-2-(1,2-dihydroxyethyl)-5-(4-methyl-7H-pyrrolo[2,3-d]pyrimidin-7-yl)tetrahydrofuran-3,4-diol] | 5230
6 | Nc1ncnc2c([C@@H]3O[C@H]([C@H](O)c4ccc(F)cc4)[C@@H](O)[C@H]3O)coc12 [Example 80, (2S,3R,4S,5R)-2-(4-aminofuro[3,2-d]pyrimidin-7-yl)-5-((R)-(4-fluorophenyl)(hydroxy)methyl)tetrahydrofuran-3,4-diol] | 32
7 | Cc1ncnc2c1ccn2[C@@H]1O[C@H]([C@H](O)c2ccccc2S(C)(=O)=O)[C@@H](O)[C@H]1O [Example 81] | 91700
8 | Cc1ncnc2c1ccn2[C@@H]1O[C@@H]([C@H](C)O)[C@@H](O)[C@H]1O [Example 89, (2S,3S,4R,5R)-2-((S)-1-hydroxyethyl)-5-(4-methyl-7H-pyrrolo[2,3-d]pyrimidin-7-yl)tetrahydrofuran-3,4-diol] | 1730
9 | Cc1ncnc2c1ccn2[C@@H]1O[C@@H](C(C)(C)O)[C@@H](O)[C@H]1O [Example 90, (2R,3S,4R,5R)-2-(2-hydroxypropan-2-yl)-5-(4-methyl-7H-pyrrolo[2,3-d]pyrimidin-7-yl)tetrahydrofuran-3,4-diol] | 3240
10 | Cc1ncnc2c1ccn2[C@@H]1O[C@H](C(=O)c2ccc(F)c(F)c2)[C@@H](O)[C@H]1O [Example 91, (3,4-difluorophenyl)((2S,3S,4R,5R)-3,4-dihydroxy-5-(4-methyl-7H-pyrrolo[2,3-d]pyrimidin-7-yl)tetrahydrofuran-2-yl)methanone] | 355
11 | Cc1ncnc2c1ccn2[C@@H]1O[C@H]([C@@H](F)c2ccc(F)c(F)c2)[C@@H](O)[C@H]1O [Example 93, (2S,3S,4R,5R)-2-((S)-(3,4-difluorophenyl)fluoromethyl)-5-(4-methyl-7H-pyrrolo[2,3-d]pyrimidin-7-yl)tetrahydrofuran-3,4-diol] | 299
12 | Cc1ncnc2c1ccn2[C@@H]1O[C@H]([C@@H](N)c2ccc(F)c(F)c2)[C@@H](O)[C@H]1O [Example 95, (2R,3S,4R,5R)-2-((S)-amino(3,4-difluorophenyl)methyl)-5-(4-methyl-7H-pyrrolo[2,3-d]pyrimidin-7-yl)tetrahydrofuran-3,4-diol] | 150
13 | O[C@@H]1[C@H](O)[C@@H]([C@H](O)c2ccc(F)cc2)O[C@H]1n1ccc2c(C(F)F)ncnc21 [Example 96, (2R,3R,4S,5R)-2-(4-(difluoromethyl)-7H-pyrrolo[2,3-d]pyrimidin-7-yl)-5-((R)-(4-fluorophenyl)(hydroxy)methyl)tetrahydrofuran-3,4-diol] | 51
14 | O[C@@H]1[C@H](O)[C@@H]([C@H](O)c2ccc(F)c(F)c2)O[C@H]1n1ccc2c(C(F)F)ncnc21 [Example 97, (2R,3R,4S,5R)-2-(4-(difluoromethyl)-7H-pyrrolo[2,3-d]pyrimidin-7-yl)-5-((R)-(3,4-difluorophenyl)(hydroxy)methyl)tetrahydrofuran-3,4-diol] | 30
15 | Cc1ncnc2c1ccn2[C@@H]1O[C@H](Cc2ccc(F)cc2)[C@@H](O)[C@H]1O [Example 100, (2R,3S,4R,5R)-2-(4-fluorobenzyl)-5-(4-methyl-7H-pyrrolo[2,3-d]pyrimidin-7-yl)tetrahydrofuran-3,4-diol] | 90
16 | Nc1ncnc2c1c(F)cn2[C@@H]1O[C@H](Cc2ccc(F)cc2)[C@@H](O)[C@H]1O [Example 101, (2R,3R,4S,5R)-2-(4-amino-5-fluoro-7H-pyrrolo[2,3-d]pyrimidin-7-yl)-5-(4-fluorobenzyl)tetrahydrofuran-3,4-diol] | 30
17 | Nc1ncnc2c([C@@H]3O[C@H]([C@H](O)c4ccc(F)cc4)[C@@H](O)[C@H]3O)scc12 [Example 102, (2R,3R,4S,5R)-2-(4-aminothieno[3,4-d]pyrimidin-7-yl)-5-((R)-(4-fluorophenyl)(hydroxy)methyl)tetrahydrofuran-3,4-diol] | 304
18 | C[C@@](O)(c1ccc(F)c(F)c1)[C@H]1O[C@@H](n2ccc3c(N)ncnc32)[C@H](O)[C@@H]1O [Example 103, (2R,3R,4S,5S)-2-(4-amino-7H-pyrrolo[2,3-d]pyrimidin-7-yl)-5-((R)-1-(3,4-difluorophenyl)-1-hydroxyethyl)tetrahydrofuran-3,4-diol] | 2
19 | C[C@](O)(c1ccc(F)c(F)c1)[C@H]1O[C@@H](n2ccc3c(N)ncnc32)[C@H](O)[C@@H]1O [Example 104, (2R,3R,4S,5S)-2-(4-amino-7H-pyrrolo[2,3-d]pyrimidin-7-yl)-5-((S)-1-(3,4-difluorophenyl)-1-hydroxyethyl)tetrahydrofuran-3,4-diol] | 147
20 | C[C@@](O)(c1ccc(Cl)c(F)c1)[C@H]1O[C@@H](n2ccc3c(N)ncnc32)[C@H](O)[C@@H]1O [Example 105, (2R,3R,4S,5S)-2-(4-amino-7H-pyrrolo[2,3-d]pyrimidin-7-yl)-5-((R)-1-(4-chloro-3-fluorophenyl)-1-hydroxyethyl)tetrahydrofuran-3,4-diol] | 2
21 | C[C@](O)(c1ccc(Cl)c(F)c1)[C@H]1O[C@@H](n2ccc3c(N)ncnc32)[C@H](O)[C@@H]1O [Example 106, (2R,3R,4S,5S)-2-(4-amino-7H-pyrrolo[2,3-d]pyrimidin-7-yl)-5-((S)-1-(4-chloro-3-fluorophenyl)-1-hydroxyethyl)tetrahydrofuran-3,4-diol] | 79
22 | O[C@@H]1[C@H](O)[C@@H]([C@H](O)c2ccc(F)c(F)c2)O[C@H]1n1ccc2c(CF)ncnc21 [Example 107, (2R,3S,4R,5R)-2-((R)-(3,4-difluorophenyl)(hydroxy)methyl)-5-(4-(fluoromethyl)-7H-pyrrolo[2,3-d]pyrimidin-7-yl)tetrahydrofuran-3,4-diol] | 7
23 | OCc1ncnc2c1ccn2[C@@H]1O[C@H]([C@H](O)c2ccc(F)c(F)c2)[C@@H](O)[C@H]1O [Example 108, (2R,3S,4R,5R)-2-((R)-(3,4-difluorophenyl)(hydroxy)methyl)-5-(4-(hydroxymethyl)-7H-pyrrolo[2,3-d]pyrimidin-7-yl)tetrahydrofuran-3,4-diol] | 50
24 | CN[C@H](c1ccc(F)c(F)c1)[C@H]1O[C@@H](n2ccc3c(C)ncnc32)[C@H](O)[C@@H]1O [Example 109, (2R,3S,4R,5R)-2-((R)-(3,4-difluorophenyl)(methylamino)methyl)-5-(4-methyl-7H-pyrrolo[2,3-d]pyrimidin-7-yl)tetrahydrofuran-3,4-diol] | 4840
25 | Cc1ncnc2c1ccn2[C@@H]1O[C@H]([C@H](O)c2cccc(=O)[nH]2)[C@@H](O)[C@H]1O [Example 113, 6-((R)-((2R,3S,4R,5R)-3,4-dihydroxy-5-(4-methyl-7H-pyrrolo[2,3-d]pyrimidin-7-yl)tetrahydrofuran-2-yl)(hydroxy)methyl)pyridin-2(1H)-one] | 87
